# Measurements: PubChem BioAssay (NCI)
# Several values for one entry are separate records, joined by “and”; a condition that tells them apart may be missing. Equal entries are not always repeated.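 Method: 48-hour compound exposure of cells in 96-well plates, five concentrations, linear interpolation of endpoints. Here, GI50 denotes the concentration required for 50% inhibition of growth. TGI is the concentration that stops growth completely.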
# Legend:
# Assay in all cases: growth of human tumour cells (NCI), 48 h
# [1] = tested on: RXF 393 renal
# [2] = tested on: K-562 leukemia
# [3] = tested on: NCI-H226 lung
# [4] = tested on: MALME-3M melanoma
# [5] = tested on: SK-MEL-2 melanoma
# [6] = tested on: HL-60(TB) leukemia
# [7] = tested on: NCI-H460 lung
# [8] = tested on: NCI-H23 lung
# [9] = tested on: HCT-15 colon
# [10] = tested on: SW-620 colon
# [11] = tested on: BT-549 breast
# [12] = tested on: OVCAR-5 ovarian
# [13] = tested on: LOX IMVI melanoma
# [14] = tested on: SK-OV-3 ovarian
# [15] = tested on: NCI-H522 lung
# [16] = tested on: OVCAR-4 ovarian
# [17] = tested on: ACHN renal
# [18] = tested on: OVCAR-8 ovarian
# [19] = tested on: HS 578T breast
# [20] = tested on: 786-0 renal
# [21] = tested on: A549 NSCLC
# [22] = tested on: HT29 colon
# [23] = tested on: SNB-75 CNS
# [24] = tested on: UACC-257 melanoma
# [25] = tested on: HCT-116 colon
# [26] = tested on: HOP-62 NSCLC
# [27] = tested on: CCRF-CEM leukemia
smiles,measurement,setting,value
Nc1ccn([C@@H]2O[C@H](COP(=O)(O)O[C@@H]3C[C@H](n4cc(F)c(=O)[nH]c4=O)O[C@@H]3COP(=O)(O)O[C@@H]3C[C@H](n4cc(F)c(=O)[nH]c4=O)O[C@@H]3COP(=O)(O)O[C@@H]3C[C@H](n4cc(F)c(=O)[nH]c4=O)O[C@@H]3COP(=O)(O)O[C@@H]3C[C@H](n4cc(F)c(=O)[nH]c4=O)O[C@@H]3COP(=O)(O)O[C@@H]3C[C@H](n4cc(F)c(=O)[nH]c4=O)O[C@@H]3COP(=O)(O)O[C@@H]3C[C@H](n4cc(F)c(=O)[nH]c4=O)O[C@@H]3COP(=O)(O)O[C@@H]3C[C@H](n4cc(F)c(=O)[nH]c4=O)O[C@@H]3COP(=O)(O)O[C@@H]3C[C@H](n4cc(F)c(=O)[nH]c4=O)O[C@@H]3COP(=O)(O)O[C@@H]3C[C@H](n4cc(F)c(=O)[nH]c4=O)O[C@@H]3COP(=O)(O)O[C@@H]3C[C@H](n4cc(F)c(=O)[nH]c4=O)O[C@@H]3COP(=O)(O)OCCOCCOCCOCCOCCOCCO)[C@H](O)C2O)c(=O)n1 (stereo not given in full),GI50,[1],0.846 µM and 0.684 µM
same,TGI,[1],21.1 µM and 70.4 µM
same,GI50,[2],0.489 µM and 0.0858 µM
same,TGI,[2],21.1 µM and > 100 µM
same,GI50,[3],9.21 µM and 24.6 µM
same,TGI,[3],21.1 µM and > 100 µM
same,GI50,[4],2.37 µM and 11.8 µM
same,TGI,[4],21.1 µM and > 100 µM
same,TGI,[5],> 100 µM
same,TGI,[6],21.1 µM and > 100 µM
same,GI50,[7],0.00211 µM
same,TGI,[7],21.1 µM and > 100 µM
same,GI50,[8],0.0255 µM and 0.0445 µM
same,TGI,[8],21.1 µM and > 100 µM
same,GI50,[9],0.697 µM and 0.179 µM
same,TGI,[9],21.1 µM and > 100 µM
same,GI50,[10],4.23 µM and 2.6 µM
same,TGI,[10],21.1 µM and > 100 µM
same,GI50,[11],0.674 µM and 0.568 µM
same,TGI,[11],21.1 µM and > 100 µM
same,GI50,[12],> 100 µM
same,TGI,[12],> 100 µM
same,GI50,[13],0.0054 µM
same,TGI,[13],21.1 µM and > 100 µM
same,GI50,[14],0.011 µM and 0.0185 µM
same,TGI,[14],21.1 µM and > 100 µM
same,TGI,[15],21.1 µM and > 100 µM
same,GI50,[16],> 21.1 µM and 89.5 µM
same,TGI,[16],> 100 µM
same,GI50,[17],0.00745 µM
same,TGI,[17],21.1 µM and > 100 µM
same,GI50,[18],0.0132 µM
same,TGI,[18],21.1 µM and > 100 µM
same,GI50,[19],> 100 µM
same,TGI,[19],> 100 µM
same,GI50,[20],0.00777 µM and 0.0131 µM
same,TGI,[20],21.1 µM and > 100 µM
same,GI50,[21],0.00284 µM
same,TGI,[21],21.1 µM and > 100 µM
same,GI50,[22],0.0171 µM
same,TGI,[22],21.1 µM and > 100 µM
same,GI50,[23],4.33 µM and 10.3 µM
same,TGI,[23],21.1 µM and > 100 µM
same,GI50,[24],0.11 µM and 0.062 µM
same,TGI,[24],21.1 µM and > 100 µM
same,GI50,[25],0.013 µM
same,TGI,[25],21.1 µM and > 100 µM
same,GI50,[26],0.00841 µM
same,TGI,[26],21.1 µM and > 100 µM
same,GI50,[27],0.0101 µM and 0.0175 µM
